{
  "source": "paper PMC3657749",
  "about": "(Journal of medicinal chemistry, 2013)",
  "key": {"[1]": {"test_system": "LNCaP (androgen dependent prostate cancer)", "test": "Cell viability assay", "type": "cell-based"}, "HDAC 1": {"molecular_target": "HDAC 1 (Homo sapiens, UniProt Q13547)", "sequence (Q13547 whole entry)": "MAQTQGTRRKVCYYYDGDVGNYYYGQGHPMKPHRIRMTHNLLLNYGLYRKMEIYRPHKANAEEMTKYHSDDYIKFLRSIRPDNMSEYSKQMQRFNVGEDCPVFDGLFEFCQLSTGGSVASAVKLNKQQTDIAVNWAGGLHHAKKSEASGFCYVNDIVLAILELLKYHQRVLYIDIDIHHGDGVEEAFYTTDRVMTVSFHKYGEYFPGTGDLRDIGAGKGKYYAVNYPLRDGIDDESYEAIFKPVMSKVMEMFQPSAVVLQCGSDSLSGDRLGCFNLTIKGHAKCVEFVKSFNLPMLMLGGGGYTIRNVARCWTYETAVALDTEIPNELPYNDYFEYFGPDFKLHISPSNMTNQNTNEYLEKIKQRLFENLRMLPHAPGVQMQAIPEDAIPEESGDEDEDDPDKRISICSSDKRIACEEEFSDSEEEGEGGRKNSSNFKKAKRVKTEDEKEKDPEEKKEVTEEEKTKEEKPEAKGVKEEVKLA", "test": "HDAC inhibition by SAMDI mass spectrometry, HDAC 1", "type": "biochemical", "conditions": "maximum tested concentration 10 μM"}, "[2]": {"test_system": "DU-145 (androgen independent prostate cancer)", "test": "Cell viability assay", "type": "cell-based", "conditions": "for DU-145 anti-proliferative activity (result in words): highest tested concentration 20 μM"}, "[3]": {"test_system": "T-cell leukemia cell line Jurkat", "test": "Cell viability assay", "type": "cell-based"}, "HDAC 6": {"molecular_target": "T1, HDAC 6 (Homo sapiens, UniProt Q9UBN7)", "T1 sequence (Q9UBN7 1-1215)": "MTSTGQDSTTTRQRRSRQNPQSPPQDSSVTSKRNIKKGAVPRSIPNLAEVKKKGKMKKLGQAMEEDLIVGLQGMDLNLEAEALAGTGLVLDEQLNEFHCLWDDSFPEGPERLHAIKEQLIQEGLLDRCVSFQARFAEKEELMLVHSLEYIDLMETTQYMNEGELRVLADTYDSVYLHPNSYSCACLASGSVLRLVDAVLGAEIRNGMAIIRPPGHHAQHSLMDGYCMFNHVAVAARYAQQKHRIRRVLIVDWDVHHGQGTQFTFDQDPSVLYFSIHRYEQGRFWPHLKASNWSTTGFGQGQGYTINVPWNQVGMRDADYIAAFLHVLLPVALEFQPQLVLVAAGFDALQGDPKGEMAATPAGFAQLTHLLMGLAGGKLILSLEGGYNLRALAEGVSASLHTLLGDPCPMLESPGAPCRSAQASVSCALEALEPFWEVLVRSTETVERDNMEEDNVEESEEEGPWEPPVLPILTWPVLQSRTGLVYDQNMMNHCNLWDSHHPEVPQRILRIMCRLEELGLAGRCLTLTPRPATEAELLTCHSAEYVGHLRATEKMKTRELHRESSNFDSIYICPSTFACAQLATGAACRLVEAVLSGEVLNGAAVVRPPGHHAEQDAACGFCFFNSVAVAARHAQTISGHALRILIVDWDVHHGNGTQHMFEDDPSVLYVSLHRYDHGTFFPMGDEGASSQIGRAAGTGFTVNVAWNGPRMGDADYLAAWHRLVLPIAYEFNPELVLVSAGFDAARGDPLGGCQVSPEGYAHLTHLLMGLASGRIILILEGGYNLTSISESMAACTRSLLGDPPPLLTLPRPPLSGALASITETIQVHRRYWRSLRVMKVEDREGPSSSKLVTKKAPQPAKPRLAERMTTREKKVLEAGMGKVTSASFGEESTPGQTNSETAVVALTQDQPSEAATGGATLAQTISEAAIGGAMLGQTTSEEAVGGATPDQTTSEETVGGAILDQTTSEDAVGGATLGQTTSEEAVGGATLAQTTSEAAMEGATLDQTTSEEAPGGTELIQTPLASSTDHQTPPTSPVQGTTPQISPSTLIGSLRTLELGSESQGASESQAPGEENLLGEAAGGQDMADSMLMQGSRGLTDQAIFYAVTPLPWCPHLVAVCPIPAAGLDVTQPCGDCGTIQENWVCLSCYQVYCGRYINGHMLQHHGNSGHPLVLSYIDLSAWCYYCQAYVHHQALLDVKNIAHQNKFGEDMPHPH", "test": "HDAC inhibition by SAMDI mass spectrometry, HDAC 6", "type": "biochemical", "conditions": "maximum tested concentration 10 μM"}, "HDAC 8": {"molecular_target": "T2, HDAC 8 (Homo sapiens, UniProt Q9BY41)", "T2 sequence (Q9BY41 1-377)": "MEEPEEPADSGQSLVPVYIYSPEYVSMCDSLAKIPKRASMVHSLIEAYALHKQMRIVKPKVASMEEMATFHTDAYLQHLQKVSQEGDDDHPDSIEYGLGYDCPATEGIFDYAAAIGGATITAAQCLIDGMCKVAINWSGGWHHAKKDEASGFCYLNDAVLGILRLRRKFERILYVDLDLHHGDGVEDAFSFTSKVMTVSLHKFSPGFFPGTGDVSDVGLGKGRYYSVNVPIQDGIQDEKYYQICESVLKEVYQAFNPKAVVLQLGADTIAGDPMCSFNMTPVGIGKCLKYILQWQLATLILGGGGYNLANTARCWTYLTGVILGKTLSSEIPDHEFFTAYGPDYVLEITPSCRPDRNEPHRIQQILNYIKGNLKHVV", "test": "HDAC inhibition by SAMDI mass spectrometry, HDAC 8", "type": "biochemical", "conditions": "for HDAC 8 inhibition (result in words): SAMDI, maximum tested concentration 10 μM; for HDAC 8 inhibition relative to 7c: fold more active than 7c"}, "[4]": {"test_system": "tubulin acetylation (HDAC6 inhibition) in LNCaP cell line", "test": "Western blot analysis of tubulin acetylation", "type": "cell-based", "conditions": "LNCaP cells, 4 hours, at IC50 concentration and at 20 μM"}, "[5]": {"test_system": "Jurkat J.gamma1 (mutant Jurkat cell line, no detectable PLCγ1 activity)", "test": "Cell viability assay", "type": "cell-based", "conditions": "for IC50: Homo sapiens, Jurkat, 72 h, read-out: Cellular IC50(μM) Jurkat J.gammal"}, "Jurkat J.gamma1": {"test_system": "Jurkat J.gamma1", "conditions": "mutant Jurkat cell line without detectable PLCγ1 activity; cited from earlier work"}},
  "data": [
    {"smiles": "Oc1ccc[nH]c1=S", "note": "[Compound 3-HPT, 3-hydroxypyridin-2-thione]", "values": [
      {"measurement": "LNCaP anti-proliferative activity (result in words)", "setting": "[1]", "result": "inactive"},
      {"measurement": "IC50", "setting": "[1]; Homo sapiens, LNCaP, read-out: Cellular IC50(μM) LNCaP", "result": "> 20", "unit": "µM"},
      {"measurement": "HDAC 1 inhibition (result in words)", "setting": "HDAC 1", "result": "no inhibition"},
      {"measurement": "IC50", "setting": "[2]; Homo sapiens, DU-145, read-out: Cellular IC50(μM) DU-145", "result": "> 20", "unit": "µM"},
      {"measurement": "DU-145 anti-proliferative activity (result in words)", "setting": "[2]", "result": "inactive"},
      {"measurement": "Jurkat anti-proliferative activity (result in words)", "setting": "[3]", "result": "inactive"},
      {"measurement": "IC50", "setting": "[3]; Homo sapiens, Jurkat, 72 h, read-out: Cellular IC50(μM) Jurkat", "result": "> 20", "unit": "µM"}
    ]},
    {"smiles": "Cn1cccc(O)c1=O", "note": "[Compound 5a, 1-Methyl-3-hydroxypyridin-2-one]", "values": [
      {"measurement": "HDAC 6 inhibition (result in words)", "setting": "HDAC 6", "result": "failed to inhibit"},
      {"measurement": "HDAC 1 inhibition (result in words)", "setting": "HDAC 1", "result": "failed to inhibit"},
      {"measurement": "HDAC 8 inhibition (result in words)", "setting": "HDAC 8", "result": "failed to inhibit"}
    ]},
    {"smiles": "O=c1c(O)cccn1Cc1ccccc1", "note": "[Compound 5b, 1-Benzyl-3-hydroxypyridin-2-one]", "values": [
      {"measurement": "HDAC 6 inhibition (result in words)", "setting": "HDAC 6", "result": "failed to inhibit"},
      {"measurement": "HDAC 1 inhibition (result in words)", "setting": "HDAC 1", "result": "failed to inhibit"},
      {"measurement": "HDAC 8 inhibition (result in words)", "setting": "HDAC 8", "result": "failed to inhibit"}
    ]},
    {"smiles": "O=c1c(O)cccn1Cc1ccc(-c2ccccc2)cc1", "note": "[Compound 5c, 1-(1,1'-Biphenylmethyl)-3-hydroxypyridin-2-one]", "values": [
      {"measurement": "HDAC 6 inhibition (result in words)", "setting": "HDAC 6", "result": "failed to inhibit"},
      {"measurement": "HDAC 1 inhibition (result in words)", "setting": "HDAC 1", "result": "failed to inhibit"},
      {"measurement": "HDAC 8 inhibition (result in words)", "setting": "HDAC 8", "result": "failed to inhibit"}
    ]},
    {"smiles": "Oc1cccn(Cc2ccccc2)c1=S", "note": "[Compound 7b, 1-Benzyl-3-hydroxypyridin-2-thione]", "values": [
      {"measurement": "HDAC 1 inhibition (result in words)", "setting": "HDAC 1", "result": "neither 7b nor 7c possess any measurable activity"}
    ]},
    {"smiles": "Oc1cccn(Cc2ccc(-c3ccccc3)cc2)c1=S", "note": "[Compound 7c, 1-(1,1'-Biphenylmethyl)-3-hydroxypyridin-2-thione]", "values": [
      {"measurement": "HDAC 1 inhibition (result in words)", "setting": "HDAC 1", "result": "neither 7b nor 7c possess any measurable activity"}
    ]},
    {"smiles": "N#Cc1ccc(-c2ccc(Cn3cccc(O)c3=S)cc2)cc1", "note": "[Compound 12a, 1-(4-Cyano-(1,1'-biphenylmethyl))-3-hydroxyoxypyridin-2-thione]", "values": [
      {"measurement": "HDAC 8 inhibition relative to 7c", "setting": "HDAC 8", "result": "about 2 fold"}
    ]},
    {"smiles": "N#Cc1cccc(-c2ccc(Cn3cccc(O)c3=S)cc2)c1", "note": "[Compound 12b, 1-(3-Cyano-(1,1'-biphenylmethyl))-3-hydroxyoxypyridin-2-thione]", "values": [
      {"measurement": "HDAC 6 inhibition (result in words)", "setting": "HDAC 6", "result": "abrogation of HDAC 6 inhibition"}
    ]},
    {"smiles": "Cc1ccccc1-c1ccc(Cn2cccc(O)c2=S)cc1", "note": "[Compound 12f, 1-(2-Methyl-(1,1'-biphenylmethyl))-3-hydroxyoxypyridin-2-thione]", "values": [
      {"measurement": "DU-145 anti-proliferative activity (result in words)", "setting": "[2]", "result": "weak activity"},
      {"measurement": "tubulin acetylation (Western blot)", "setting": "[4]", "result": "increase in tubulin acetylation"},
      {"measurement": "Jurkat J.gamma1 anti-proliferative activity (result in words)", "setting": "[5]", "result": "non-cytotoxic"},
      {"measurement": "IC50", "setting": "[5]", "result": "> 20", "unit": "µM"}
    ]},
    {"smiles": "CN(C)c1ccc(-c2ccc(Cn3cccc(O)c3=S)cc2)cc1", "note": "[Compound 12g, 1-(4-Dimethylamino-(1,1'-biphenylmethyl))-3-hydroxyoxypyridin-2-thione]", "values": [
      {"measurement": "HDAC 6 inhibition (result in words)", "setting": "HDAC 6", "result": "loss of HDAC 6 inhibition"},
      {"measurement": "HDAC 8 inhibition relative to 7c", "setting": "HDAC 8", "result": "about 2 fold"},
      {"measurement": "Jurkat J.gamma1 anti-proliferative activity (result in words)", "setting": "[5]", "result": "devoid of anti-proliferative activity"},
      {"measurement": "IC50", "setting": "[5]", "result": "> 20", "unit": "µM"}
    ]},
    {"smiles": "CN(C)c1ccc(-c2ccc(Cn3cccc(O)c3=S)cc2)cn1", "note": "[Compound 12h]", "values": [
      {"measurement": "HDAC 8 inhibition (result in words)", "setting": "HDAC 8", "result": "loss of HDAC 8 inhibition"}
    ]},
    {"smiles": "O=c1c(O)cccn1Cc1cn(-c2ccccc2)nn1", "note": "[Compound 15a, 1-Phenyltriazolylmethyl-3-hydroxypyridin-2-one]", "values": [
      {"measurement": "HDAC 6 inhibition (result in words)", "setting": "HDAC 6", "result": "inactive"},
      {"measurement": "HDAC 1 inhibition (result in words)", "setting": "HDAC 1", "result": "inactive"},
      {"measurement": "HDAC 8 inhibition (result in words)", "setting": "HDAC 8", "result": "inactive"}
    ]},
    {"smiles": "Oc1cccn(Cc2cn(-c3ccccc3)nn2)c1=S", "note": "[Compound 17a, 1-Phenyltriazolylmethyl-3-hydroxypyridin-2-thione]", "values": [
      {"measurement": "HDAC 6 inhibition (result in words)", "setting": "HDAC 6", "result": "only marginally inhibitory"},
      {"measurement": "HDAC 8 inhibition relative to 7c", "setting": "HDAC 8", "result": "2 to 3", "unit": "fold"},
      {"measurement": "Jurkat J.gamma1 anti-proliferative activity (result in words)", "setting": "[5]", "result": "devoid of anti-proliferative activity"},
      {"measurement": "IC50", "setting": "[5]", "result": "> 20", "unit": "µM"}
    ]},
    {"smiles": "COc1ccc(Cn2ccc3ccc(C(=O)NO)cc32)cc1", "note": "[PCI-34051]", "values": [
      {"measurement": "apoptosis induction in Jurkat J.gamma1", "setting": "Jurkat J.gamma1", "result": "lost its ability to induce apoptosis"}
    ]},
    {"smiles": "O=C(CCCCCCC(=O)Nc1ccccc1)NO", "note": "[SAHA, suberoylanilide hydroxamic acid, reference compound]", "values": [
      {"measurement": "tubulin acetylation (Western blot)", "setting": "[4]", "result": "concentration dependent tubulin hyperacetylation"},
      {"measurement": "Jurkat J.gamma1 anti-proliferative activity (result in words)", "setting": "[5]", "result": "non-cytotoxic"}
    ]}
  ]
}
